From ChEMBL document CHEMBL1154164, “Design, synthesis, biological evaluation, and NMR studies of a new series of arylsulfones as selective and potent matrix metalloproteinase-12 inhibitors” (J Med Chem, 2009)

Columns and labels:
[1] = molecular target: Collagenase 3 (Homo sapiens, UniProt P45452); experiment: Inhibition of para-aminophenylmercuric acetate-activated human pro-MMP13 after 4 hrs by fluorimetry
[2] = molecular target: Matrix metalloproteinase-16 (Homo sapiens, UniProt P51512); experiment: Inhibition of human recombinant pro-MMP16 catalytic domain after 4 hrs by fluorimetry
Chain of Matrix metalloproteinase-16 (P51512 whole entry, the tested form may be a part): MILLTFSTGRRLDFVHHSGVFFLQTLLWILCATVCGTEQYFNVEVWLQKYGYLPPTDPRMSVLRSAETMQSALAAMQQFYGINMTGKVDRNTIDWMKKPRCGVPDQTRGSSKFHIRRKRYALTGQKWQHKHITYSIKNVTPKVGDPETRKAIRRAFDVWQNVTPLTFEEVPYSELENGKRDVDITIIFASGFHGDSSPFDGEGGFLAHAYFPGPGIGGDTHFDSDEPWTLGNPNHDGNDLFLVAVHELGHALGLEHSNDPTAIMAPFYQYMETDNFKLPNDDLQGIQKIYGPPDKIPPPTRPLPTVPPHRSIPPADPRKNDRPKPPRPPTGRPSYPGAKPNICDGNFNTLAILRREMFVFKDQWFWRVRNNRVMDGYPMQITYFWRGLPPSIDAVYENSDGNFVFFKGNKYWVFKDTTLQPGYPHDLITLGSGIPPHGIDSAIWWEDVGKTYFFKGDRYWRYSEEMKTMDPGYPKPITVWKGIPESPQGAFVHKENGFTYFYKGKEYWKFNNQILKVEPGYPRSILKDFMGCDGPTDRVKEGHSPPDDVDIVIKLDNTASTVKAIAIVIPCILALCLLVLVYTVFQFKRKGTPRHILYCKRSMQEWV

[3] = molecular target: T1, Interstitial collagenase (Homo sapiens, UniProt P03956); experiment: Inhibition of para-aminophenylmercuric acetate-activated human pro-MMP1 after 4 hrs by fluorimetry
T1 sequence (P03956 whole entry): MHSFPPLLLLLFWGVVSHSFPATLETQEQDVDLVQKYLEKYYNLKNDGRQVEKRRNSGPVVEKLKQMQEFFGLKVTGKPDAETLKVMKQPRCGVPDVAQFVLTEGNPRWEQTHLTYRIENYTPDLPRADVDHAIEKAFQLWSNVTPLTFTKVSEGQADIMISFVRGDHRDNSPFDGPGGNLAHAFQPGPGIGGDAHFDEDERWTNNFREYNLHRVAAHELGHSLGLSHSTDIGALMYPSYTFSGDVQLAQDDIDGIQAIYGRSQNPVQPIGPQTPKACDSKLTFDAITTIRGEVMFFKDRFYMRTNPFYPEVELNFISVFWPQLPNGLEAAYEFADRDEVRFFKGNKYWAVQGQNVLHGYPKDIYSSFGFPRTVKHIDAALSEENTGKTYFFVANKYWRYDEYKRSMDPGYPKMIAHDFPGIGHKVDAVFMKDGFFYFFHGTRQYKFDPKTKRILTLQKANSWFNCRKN

[4] = molecular target: 72 kDa type IV collagenase (Homo sapiens, UniProt P08253); experiment: Inhibition of para-aminophenylmercuric acetate-activated human recombinant pro-MMP2 catalytic domain after 4 hrs by fluorimetry
Chain of 72 kDa type IV collagenase (P08253 whole entry, the tested form may be a part): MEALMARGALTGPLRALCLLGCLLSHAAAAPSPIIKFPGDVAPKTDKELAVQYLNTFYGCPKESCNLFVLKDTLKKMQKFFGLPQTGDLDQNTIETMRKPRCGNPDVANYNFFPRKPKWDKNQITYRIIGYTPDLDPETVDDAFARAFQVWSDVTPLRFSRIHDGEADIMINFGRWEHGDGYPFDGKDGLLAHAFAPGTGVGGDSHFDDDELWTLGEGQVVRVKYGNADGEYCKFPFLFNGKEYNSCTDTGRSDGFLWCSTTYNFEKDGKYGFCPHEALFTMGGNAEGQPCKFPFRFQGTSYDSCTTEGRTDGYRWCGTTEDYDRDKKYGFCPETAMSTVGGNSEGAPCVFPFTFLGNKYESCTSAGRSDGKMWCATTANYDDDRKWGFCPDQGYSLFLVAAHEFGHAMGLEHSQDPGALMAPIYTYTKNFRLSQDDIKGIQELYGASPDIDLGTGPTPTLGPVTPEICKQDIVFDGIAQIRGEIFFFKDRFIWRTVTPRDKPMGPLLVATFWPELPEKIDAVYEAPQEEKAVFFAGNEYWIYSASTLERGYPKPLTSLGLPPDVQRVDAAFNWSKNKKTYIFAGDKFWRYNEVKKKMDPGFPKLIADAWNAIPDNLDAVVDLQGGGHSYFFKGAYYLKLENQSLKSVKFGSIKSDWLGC

[5] = molecular target: T2, Macrophage metalloelastase (Homo sapiens, UniProt P39900); experiment: Inhibition of autoactivated human pro-MMP12 after 4 hrs by fluorimetry
T2 sequence (P39900 whole entry, the tested form may be a part): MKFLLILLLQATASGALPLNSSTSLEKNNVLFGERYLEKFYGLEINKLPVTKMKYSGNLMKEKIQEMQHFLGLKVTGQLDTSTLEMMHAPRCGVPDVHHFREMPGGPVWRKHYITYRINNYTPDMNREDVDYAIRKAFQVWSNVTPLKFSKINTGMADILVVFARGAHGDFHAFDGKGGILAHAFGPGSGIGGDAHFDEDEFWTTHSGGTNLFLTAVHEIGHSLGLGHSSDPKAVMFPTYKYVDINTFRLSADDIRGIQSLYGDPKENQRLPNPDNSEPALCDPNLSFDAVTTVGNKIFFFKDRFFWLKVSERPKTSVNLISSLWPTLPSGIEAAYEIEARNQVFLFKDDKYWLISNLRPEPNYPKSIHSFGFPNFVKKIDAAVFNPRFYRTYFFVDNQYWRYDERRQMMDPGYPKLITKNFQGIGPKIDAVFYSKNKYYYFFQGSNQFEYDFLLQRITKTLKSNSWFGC

[6] = molecular target: Matrix metalloproteinase-14 (Homo sapiens, UniProt P50281); experiment: Inhibition of human recombinant pro-MMP14 catalytic domain after 4 hrs by fluorimetry
[7] = molecular target: Matrix metalloproteinase-9 (Homo sapiens, UniProt P14780); experiment: Inhibition of para-aminophenylmercuric acetate-activated human recombinant pro-MMP9 catalytic domain after 4 hrs by fluorimetry
Chain of Matrix metalloproteinase-9 (P14780 whole entry, the tested form may be a part): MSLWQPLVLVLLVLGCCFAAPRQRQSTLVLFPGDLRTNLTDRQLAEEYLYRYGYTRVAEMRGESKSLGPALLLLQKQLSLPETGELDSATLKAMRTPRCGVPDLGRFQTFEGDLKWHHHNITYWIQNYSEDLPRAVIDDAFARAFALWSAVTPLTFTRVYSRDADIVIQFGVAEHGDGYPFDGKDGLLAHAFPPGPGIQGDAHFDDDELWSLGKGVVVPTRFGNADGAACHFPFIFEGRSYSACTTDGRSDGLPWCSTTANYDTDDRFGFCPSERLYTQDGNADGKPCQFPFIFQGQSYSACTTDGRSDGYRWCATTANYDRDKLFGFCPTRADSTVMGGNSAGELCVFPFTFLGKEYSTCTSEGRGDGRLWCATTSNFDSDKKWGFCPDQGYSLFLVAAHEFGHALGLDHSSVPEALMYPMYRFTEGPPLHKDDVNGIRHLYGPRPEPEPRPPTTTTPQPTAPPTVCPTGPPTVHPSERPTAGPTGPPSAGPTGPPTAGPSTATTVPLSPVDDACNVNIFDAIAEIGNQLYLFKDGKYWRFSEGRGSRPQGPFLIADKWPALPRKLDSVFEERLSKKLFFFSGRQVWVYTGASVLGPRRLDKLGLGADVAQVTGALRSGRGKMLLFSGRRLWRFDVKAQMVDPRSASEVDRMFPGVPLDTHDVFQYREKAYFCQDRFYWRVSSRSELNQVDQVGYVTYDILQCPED

[8] = molecular target: Stromelysin-1 (Homo sapiens, UniProt P08254); experiment: Inhibition of trypsin activated human pro-MMP3 after 4 hrs by fluorimetry
Chain of Stromelysin-1 (P08254 whole entry): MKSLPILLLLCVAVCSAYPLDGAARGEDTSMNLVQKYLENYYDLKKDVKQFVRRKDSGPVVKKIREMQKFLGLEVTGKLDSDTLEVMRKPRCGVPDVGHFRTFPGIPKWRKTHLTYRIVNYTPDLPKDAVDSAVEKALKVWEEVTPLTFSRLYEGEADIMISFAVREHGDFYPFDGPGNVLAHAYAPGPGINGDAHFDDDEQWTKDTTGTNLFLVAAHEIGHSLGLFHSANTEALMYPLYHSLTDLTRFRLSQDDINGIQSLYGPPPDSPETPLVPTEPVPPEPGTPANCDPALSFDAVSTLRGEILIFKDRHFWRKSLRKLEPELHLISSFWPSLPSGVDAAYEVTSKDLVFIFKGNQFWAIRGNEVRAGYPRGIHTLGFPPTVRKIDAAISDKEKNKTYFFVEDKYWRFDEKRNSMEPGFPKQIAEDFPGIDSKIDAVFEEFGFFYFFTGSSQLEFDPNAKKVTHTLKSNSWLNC

[9] = molecular target: Neutrophil collagenase (Homo sapiens, UniProt P22894); experiment: Inhibition of para-aminophenylmercuric acetate-activated human pro-MMP8 after 4 hrs by fluorimetry
Chain of Neutrophil collagenase (P22894 whole entry): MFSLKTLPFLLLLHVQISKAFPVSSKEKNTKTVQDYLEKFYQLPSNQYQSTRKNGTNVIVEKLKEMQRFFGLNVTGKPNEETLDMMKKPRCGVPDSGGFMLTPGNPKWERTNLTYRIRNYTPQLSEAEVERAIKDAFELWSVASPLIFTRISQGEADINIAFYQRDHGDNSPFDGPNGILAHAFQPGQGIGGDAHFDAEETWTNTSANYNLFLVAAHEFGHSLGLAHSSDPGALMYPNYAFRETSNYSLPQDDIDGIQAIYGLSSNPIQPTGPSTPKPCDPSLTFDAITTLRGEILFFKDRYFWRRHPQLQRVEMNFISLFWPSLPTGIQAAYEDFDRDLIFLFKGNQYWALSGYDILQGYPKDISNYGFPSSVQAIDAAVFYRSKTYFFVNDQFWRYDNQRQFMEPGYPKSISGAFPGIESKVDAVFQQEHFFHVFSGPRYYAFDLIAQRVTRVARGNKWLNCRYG

[10] = molecular target: T2, Macrophage metalloelastase; experiment: Inhibition of autoactivated human pro-MMP12 after 30 mins preincubation by fluorimetry
[11] = molecular target: T2, Macrophage metalloelastase; experiment: Inhibition of autoactivated human pro-MMP12 after 1 hr preincubation by fluorimetry

Row | Structure (SMILES) | IC50 [1] | IC50 [2] | IC50 [3] | IC50 [4] | IC50 [5] | IC50 [6] | IC50 [7] | IC50 [8] | IC50 [9] | IC50 [10] | IC50 [11]
1 | CC(C)ON([C@@H](C(=O)NO)C(C)C)S(=O)(=O)c1ccc(-c2ccccc2)cc1 | 0.0041 µM | 0.051 µM | 0.49 µM | 0.0008 µM | 0.0002 µM | – | – | – | – | – | –
2 | COc1ccc(S(=O)(=O)c2ccccc2CC(=O)NO)cc1 | 0.084 µM | 0.13 µM | 4.1 µM | 0.23 µM | 0.032 µM | 0.2 µM | 0.098 µM | 0.73 µM | 0.28 µM | – | –
3 | COc1ccc(Oc2ccc(S(=O)(=O)c3ccccc3CC(=O)NO)cc2)cc1 | 0.0041 µM | 0.032 µM | 3.5 µM | 0.0035 µM | 0.0002 µM | 0.033 µM | 0.0008 µM | 0.021 µM | 0.0051 µM | 0.00089 µM | 0.00085 µM
4 | COc1ccc(-c2ccc(S(=O)(=O)c3ccccc3C(=O)NO)cc2)cc1 | 0.26 µM | 1.2 µM | 28 µM | 0.1 µM | 0.07 µM | 1.3 µM | 0.93 µM | 4 µM | 0.087 µM | – | –
5 | COc1ccc(-c2ccc(S(=O)(=O)c3ccccc3CC(=O)O)cc2)cc1 | 0.078 µM | 0.73 µM | 4.4 µM | 0.047 µM | 0.14 µM | 0.74 µM | 0.73 µM | 7.5 µM | 0.099 µM | 0.17 µM | 0.15 µM
6 | CC(C)ON([C@@H](C(=O)O)C(C)C)S(=O)(=O)c1ccc(-c2ccccc2)cc1 | 7.9 µM | 18 µM | > 100 µM | 1.5 µM | 0.41 µM | 10 µM | 24 µM | 54 µM | 2 µM | – | –
7 | COc1ccc(S(=O)(=O)c2ccccc2C(=O)NO)cc1 | 28 µM | 31 µM | > 100 µM | 35 µM | 14 µM | 25 µM | 24 µM | > 50 µM | 72 µM | – | –
8 | C[S+]([O-])c1ccc(Oc2ccc(S(=O)(=O)c3ccccc3C(=O)NO)cc2)cc1 (stereo not given) | 20 µM | 110 µM | > 200 µM | 9.9 µM | 5.8 µM | 120 µM | 51 µM | 60 µM | 9.2 µM | – | –
9 | COc1ccc(Oc2ccc(S(=O)(=O)c3ccccc3CC(=O)O)cc2)cc1 | 0.94 µM | 6.5 µM | > 10 µM | 0.71 µM | 0.38 µM | 8.1 µM | 0.42 µM | > 10 µM | 1.2 µM | – | –
10 | COc1ccc(Oc2ccc(S(=O)(=O)c3ccccc3C(=O)NO)cc2)cc1 | 2.7 µM | 6 µM | > 10 µM | 1.3 µM | 0.92 µM | 4 µM | 0.41 µM | 22 µM | 1.9 µM | – | –
11 | COc1ccc(S(=O)(=O)c2ccccc2CC(=O)O)cc1 | 55 µM | 93 µM | > 100 µM | 58 µM | 89 µM | 77 µM | > 100 µM | > 100 µM | 74 µM | – | –
12 | COc1ccc(-c2ccc(S(=O)(=O)c3ccccc3C(C)C(=O)NO)cc2)cc1 (racemic) | 0.012 µM | 0.15 µM | > 10 µM | 0.007 µM | 0.0027 µM | 0.36 µM | 0.069 µM | 1.4 µM | 0.054 µM | – | –

More lines, main results first:

Row | IC50 [1] | IC50 [2] | IC50 [3] | IC50 [4] | IC50 [5] | IC50 [6] | IC50 [7] | IC50 [8] | IC50 [9] | Structure (SMILES) | IC50 [10] | IC50 [11]
13 | 0.26 µM | 4.3 µM | 23 µM | 0.51 µM | 1.5 µM | 5.4 µM | 7.3 µM | 74 µM | 0.29 µM | O=C(O)Cc1ccccc1S(=O)(=O)c1ccc(-c2ccccc2)cc1 | – | –
14 | 0.062 µM | 0.22 µM | 29 µM | 0.038 µM | 0.006 µM | 0.94 µM | 0.31 µM | 23 µM | 0.37 µM | O=C(Cc1ccccc1S(=O)(=O)c1ccc(-c2ccccc2)cc1)NO | – | –
15 | 1.4 µM | 5.1 µM | 73 µM | 1.3 µM | 0.59 µM | 8.3 µM | 7.7 µM | 45 µM | 1 µM | O=C(NO)c1ccccc1S(=O)(=O)c1ccc(-c2ccccc2)cc1 | – | –
16 | 2.7 µM | 1.3 µM | > 10 µM | 1.2 µM | 1.2 µM | 1.3 µM | 0.69 µM | 27 µM | 0.62 µM | O=C(NO)c1ccccc1S(=O)(=O)c1ccc(Oc2ccccc2)cc1 | – | –
17 | 0.025 µM | 0.13 µM | 8.3 µM | 0.0097 µM | 0.0048 µM | 0.71 µM | 0.094 µM | 1.6 µM | 0.12 µM | COc1ccc(-c2ccc(S(=O)(=O)c3ccccc3CC(=O)NO)cc2)cc1 | – | –
18 | 0.074 µM | 0.47 µM | 12 µM | 0.073 µM | 0.006 µM | 0.86 µM | 0.34 µM | 5.6 µM | 0.39 µM | CC(C(=O)NO)c1ccccc1S(=O)(=O)c1ccc(-c2ccccc2)cc1 (racemic) | – | –
19 | 1.8 µM | 6.3 µM | 51 µM | 2.4 µM | 1.9 µM | 18 µM | 20 µM | > 100 µM | 1.9 µM | CC(C(=O)O)c1ccccc1S(=O)(=O)c1ccc(-c2ccccc2)cc1 (racemic) | – | –
20 | 0.19 µM | 1.1 µM | > 10 µM | 0.19 µM | 0.31 µM | 2.1 µM | 3 µM | 8 µM | 0.29 µM | COc1ccc(-c2ccc(S(=O)(=O)c3ccccc3C(C)C(=O)O)cc2)cc1 (racemic) | – | –
